Values quoted from earlier work as cited in patent publication US20140328890A1, “Silver Iodate Compounds Having Antimicrobial Properties” (priority 2010, published 2014).

Conditions: published literature

Compound: [Ag+].[Ag+].[Ag+].[Ag+].[Ag+].[O-][I+]([O-])([O-])([O-])([O-])[O-] [Ag5IO6, pentasilver hexaoxoiodate]
- sensitivity to light and air: insensitive to light and air
